Test results as given in patent US20260083838A1, “Adjuvant Composition Comprising STING Agonists” (GlaxoSmithKline Biologicals SA, priority 2021, published 2026).

Assays:
Type in all cases: physicochemical
[1] = Minimal amount of Al(OH)3 needed to fully adsorb the STING agonist (fluorometry of supernatant); conditions: STING agonist 45 μg/ml, Al(OH)3 0 to 200 μg/ml (by reference to Al3+)
Protocol: 1.2 Next, the minimal amount of Al(OH)3 needed to fully adsorb the STING agonist was determined. Compound 1 was used. The amount of the STING agonist was fixed at 45 μg/ml and AL(OH)3 varied from 0 to 200 μg/ml (by reference to Al^3+), so that different ratios STING agonist:Al(OH)3 were tested. The different formulations (as indicated in Table 2) were mixed under agitation for 1 h. Samples were then centrifuged for 10 min at 8000 rpm. The supernatant of the centrifuged samples was then analysed to characterize the amount of STING agonist which was not adsorbed. The quantification was performed by fluorometry.

[2] = Adsorption of the STING agonist and the antigen on Al(OH)3 (supernatant after centrifugation); conditions: groups 5, 6, 7, 8: 45, 15, 5 μg/ml STING agonist with 111 μg/ml Al(OH)3, or 15 μg/ml with 35 μg/ml Al(OH)3; antigen 20 μg/mL
Protocol: (§1) The compatibility between the antigen and the STING agonist was assessed, on the one hand, by determining the amount of the STING agonist recovered (using HPLC) in the supernatant after centrifugation of the formulations described in the above groups 2, 3 and 4, and, on the other hand, by determining the amount and profile of the antigen recovered (using HPLC) in the supernatant after centrifugation of the formulations described in the above groups 2, 3 and 4. The adsorption of the STING agonist and the antigen on Al(OH)3 was similarly assessed by determining the amount of STING agonist and amount and profile of the antigen, respectively, recovered) in the supernatant after centrifugation of the formulations described in the above groups 5, 6, 7 and 8. The concentration of the HSV-2 gE-gI antigen was 20 μg/mL in each group. The precise methodology for preparing the STING agonist and Al(OH)3 formulation was as follows: a solution of Al(OH)3 in water for injection was prepared, the required amount of STING agonist was added, the required amount of HSV-2 gE-gI to have 20 μg/mL in final solution was added. The solution was then mixed for 30 minutes at room temperature. NaCl was added, and the mixture was mixed for 5 minutes.

[3] = Compatibility between the antigen and the STING agonist (HPLC, SDS PAGE of supernatant after centrifugation); conditions: groups 2, 3, 4: 45, 15, 5 μg/ml STING agonist aqueous, 20 μg/mL HSV-2 gE-gI, no added Al(OH)3
Protocol: as §1

CCn1nc(C)cc1C(=O)/N=c1\[nH]c2cc(C(N)=O)cc(OC)c2n1C/C=C/Cn1/c(=N/C(=O)c2cc(C)nn2CC)[nH]c2cc(C(N)=O)cc(OCCCOP(=O)(O)O)c21 [Compound 1, 3-(((E)-6-carbamoyl-3-((E)-4-((E)-5-carbamoyl-2-((1-ethyl-3-methyl-1H-pyrazole-5-carbonyl)imino)-7-methoxy-2,3-dihydro-1H-benzo[d]imidazol-1-yl)but-2-en-1-yl)-2-((1-ethyl-3-methyl-1H-pyrazole-5-carbonyl)imino)-2,3-dihydro-1H-benzo[d]imidazol-4-yl)oxy)propyl dihydrogen phosphate]
adsorption of STING agonist on Al(OH)3 (in words) [1]: generally well adsorbed on Al(OH)3 | maximum ratio STING agonist to aluminium hydroxide allowing for an optimal adsorption [1]: about 1.5 | adsorption of STING agonist on Al(OH)3 (STING agonist in supernatant) [2]: entire amount of the STING agonist was adsorbed on Al(OH)3 | amount of STING agonist in supernatant of centrifuged vs non-centrifuged samples [3]: no aggregation or precipitation occurs in the presence of the antigen
